Measurements from ChEMBL document CHEMBL1129518, “Synthesis and pharmacologic evaluation of 2-endo-amino-3-exo-isopropylbicyclo[2.2.1]heptane: a potent imidazoline1 receptor specific agent” (J Med Chem, 1996).

Columns and labels:
[1] = biological target: T1, Adrenergic receptor alpha-1 (Homo sapiens, UniProt P35348+P25100+P35368); assay: Binding affinity for human brain Alpha-1 adrenergic receptor
T1 sequence (P35348 whole entry): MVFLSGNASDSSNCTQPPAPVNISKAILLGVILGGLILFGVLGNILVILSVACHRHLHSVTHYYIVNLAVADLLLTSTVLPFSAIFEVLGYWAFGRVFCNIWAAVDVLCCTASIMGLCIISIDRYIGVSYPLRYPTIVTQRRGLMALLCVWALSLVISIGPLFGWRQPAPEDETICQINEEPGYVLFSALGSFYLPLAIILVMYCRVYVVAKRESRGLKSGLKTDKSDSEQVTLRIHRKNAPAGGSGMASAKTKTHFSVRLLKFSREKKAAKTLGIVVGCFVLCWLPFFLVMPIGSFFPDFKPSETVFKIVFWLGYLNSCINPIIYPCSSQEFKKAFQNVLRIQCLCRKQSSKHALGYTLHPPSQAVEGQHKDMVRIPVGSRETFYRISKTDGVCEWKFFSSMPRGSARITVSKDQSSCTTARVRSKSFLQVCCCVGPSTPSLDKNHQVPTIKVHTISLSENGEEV
T1 sequence (P25100 whole entry): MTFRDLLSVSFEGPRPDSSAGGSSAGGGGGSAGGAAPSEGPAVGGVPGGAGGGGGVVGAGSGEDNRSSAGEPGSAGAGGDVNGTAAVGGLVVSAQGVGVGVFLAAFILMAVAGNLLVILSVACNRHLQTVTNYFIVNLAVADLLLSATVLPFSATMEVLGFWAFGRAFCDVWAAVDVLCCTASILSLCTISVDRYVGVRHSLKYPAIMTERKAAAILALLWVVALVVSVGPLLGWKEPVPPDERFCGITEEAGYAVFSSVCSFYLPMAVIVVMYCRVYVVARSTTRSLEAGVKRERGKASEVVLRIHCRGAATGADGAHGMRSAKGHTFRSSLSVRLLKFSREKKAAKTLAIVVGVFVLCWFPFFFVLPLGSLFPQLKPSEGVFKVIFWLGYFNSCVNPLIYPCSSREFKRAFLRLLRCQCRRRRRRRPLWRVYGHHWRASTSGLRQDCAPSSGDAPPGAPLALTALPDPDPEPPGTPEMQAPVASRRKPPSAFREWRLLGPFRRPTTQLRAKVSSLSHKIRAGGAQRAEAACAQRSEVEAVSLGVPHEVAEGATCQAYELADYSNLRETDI
T1 sequence (P35368 whole entry): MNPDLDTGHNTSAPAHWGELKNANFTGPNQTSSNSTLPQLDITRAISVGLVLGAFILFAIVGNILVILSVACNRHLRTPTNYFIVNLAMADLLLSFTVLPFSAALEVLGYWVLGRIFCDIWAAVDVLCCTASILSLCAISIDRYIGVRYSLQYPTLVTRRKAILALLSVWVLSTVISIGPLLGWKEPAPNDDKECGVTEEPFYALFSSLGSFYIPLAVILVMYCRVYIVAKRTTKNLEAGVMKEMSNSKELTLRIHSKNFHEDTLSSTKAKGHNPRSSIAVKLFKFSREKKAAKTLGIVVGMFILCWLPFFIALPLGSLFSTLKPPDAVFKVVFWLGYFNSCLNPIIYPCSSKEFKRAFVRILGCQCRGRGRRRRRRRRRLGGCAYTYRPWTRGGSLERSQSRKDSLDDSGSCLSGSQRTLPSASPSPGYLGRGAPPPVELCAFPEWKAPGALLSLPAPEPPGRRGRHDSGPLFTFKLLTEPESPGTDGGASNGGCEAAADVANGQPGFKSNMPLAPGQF

[2] = biological target: T2, Alpha-2A adrenergic receptor (Homo sapiens, UniProt P08913); assay: Binding affinity for human Alpha-2A adrenergic receptor
T2 sequence (P08913 whole entry): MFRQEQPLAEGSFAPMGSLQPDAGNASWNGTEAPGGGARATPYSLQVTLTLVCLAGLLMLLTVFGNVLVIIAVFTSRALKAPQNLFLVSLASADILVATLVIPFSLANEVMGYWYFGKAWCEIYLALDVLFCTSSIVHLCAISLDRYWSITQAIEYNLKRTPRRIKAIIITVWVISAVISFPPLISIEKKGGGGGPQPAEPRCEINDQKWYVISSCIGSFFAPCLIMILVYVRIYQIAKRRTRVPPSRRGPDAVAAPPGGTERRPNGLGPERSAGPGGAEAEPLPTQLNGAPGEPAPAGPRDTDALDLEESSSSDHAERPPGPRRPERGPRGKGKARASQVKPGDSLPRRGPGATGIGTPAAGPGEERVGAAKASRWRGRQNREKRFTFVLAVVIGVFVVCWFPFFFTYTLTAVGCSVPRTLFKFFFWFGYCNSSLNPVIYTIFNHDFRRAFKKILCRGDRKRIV

[3] = biological target: T3, Alpha-2C adrenergic receptor (Homo sapiens, UniProt P18825); assay: Binding affinity for human Alpha-2C adrenergic receptor
T3 sequence (P18825 whole entry): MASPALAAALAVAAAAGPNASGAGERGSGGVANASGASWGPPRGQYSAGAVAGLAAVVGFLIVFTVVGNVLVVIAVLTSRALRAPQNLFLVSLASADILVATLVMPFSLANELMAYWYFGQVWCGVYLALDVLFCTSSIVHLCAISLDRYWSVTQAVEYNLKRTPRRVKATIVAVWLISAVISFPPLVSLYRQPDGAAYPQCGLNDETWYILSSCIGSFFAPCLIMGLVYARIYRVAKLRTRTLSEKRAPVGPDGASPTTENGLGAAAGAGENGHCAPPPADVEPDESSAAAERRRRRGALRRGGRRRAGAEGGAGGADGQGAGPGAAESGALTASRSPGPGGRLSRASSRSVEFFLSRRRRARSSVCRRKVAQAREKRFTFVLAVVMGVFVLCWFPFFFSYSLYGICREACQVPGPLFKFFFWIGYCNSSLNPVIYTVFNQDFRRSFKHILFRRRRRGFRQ

[4] = biological target: T4, Alpha-2B adrenergic receptor (Rattus norvegicus, UniProt P19328); assay: Binding affinity for rat Alpha-2B adrenergic receptor
T4 sequence (P19328 whole entry): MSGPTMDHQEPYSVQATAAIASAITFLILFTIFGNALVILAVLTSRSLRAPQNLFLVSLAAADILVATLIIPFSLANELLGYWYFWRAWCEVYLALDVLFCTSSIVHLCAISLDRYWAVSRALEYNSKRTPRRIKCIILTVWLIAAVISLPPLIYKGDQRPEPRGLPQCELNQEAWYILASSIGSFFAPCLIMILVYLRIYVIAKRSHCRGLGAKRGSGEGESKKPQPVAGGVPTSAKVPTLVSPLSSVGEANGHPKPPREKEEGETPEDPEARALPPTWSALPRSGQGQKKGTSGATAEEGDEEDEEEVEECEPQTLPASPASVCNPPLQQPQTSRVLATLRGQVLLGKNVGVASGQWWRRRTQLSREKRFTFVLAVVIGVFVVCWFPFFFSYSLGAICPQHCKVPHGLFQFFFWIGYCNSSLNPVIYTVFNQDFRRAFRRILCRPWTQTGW

| Ki [1] | Ki [2] | Ki [3] | Ki [4] | Structure (SMILES) |
| --- | --- | --- | --- | --- |
| > 100 µM | > 20 µM | > 20 µM | > 20 µM | CC(C)C1C2CCC(C2)C1N (stereo not given) |
| > 30 µM | – | – | – | COc1nc(C)nc(Cl)c1NC1=NCCN1 [MOXONIDINE] |
